Reference: patent US20250074910A1, “MENIN INHIBITOR AND USE THEREOF” (HITGEN INC., priority 2021, published 2025)

System: MV4-11
Experiment: Cell proliferation inhibition (CellTiter-Glo), MV4-11
Assay type: cell-based
Settings: Homo sapiens, MV4-11, 72 h, MV4-11 cells
How it was run: (§1)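 Leukemia cells were seeded at 5,000-20,000 cells/well and exposed to test compound at final concentrations from 1 nM to 10 μM. After 72-168 h at 37° C and 5% CO2, viability was measured by CellTiter-Glo luminescence following 10 min at room temperature, and IC50 values were obtained from fitted curves.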

SMILES | GI50
CC(C)N(C(=O)c1cc(F)ccc1Oc1nncnc1N1CC2(CCN(CC3CC4CCC3CC43CCC(=O)N3)CC2)C1)C(C)C (single isomer, unassigned) [Example 15-1a] | 56.6 nM
CCN(C(=O)c1cc(F)ccc1Oc1cncnc1N1CC2(CCN(C[C@H]3CC[C@]4(CC3)CC(COC)(COC)C(=O)N4)CC2)C1)C(C)C [Example 17] | 13.8 nM
COCC1(COC)C[C@]2(CC[C@@H](CN3CCC4(CC3)CN(c3ncnnc3Oc3ccc(F)cc3C(=O)N(C(C)C)C(C)C)C4)CC2)NC1=O [Example 20] | 14.2 nM
COC[C@H]1C[C@]2(CC[C@@H](CN3CCC4(CC3)CN(c3ncnnc3Oc3ccc(F)cc3C(=O)N(C(C)C)C(C)C)C4)CC2)NC1=O [Example 38-1] | 53.8 nM
COC[C@@H]1C[C@]2(CC[C@@H](CN3CCC4(CC3)CN(c3ncnnc3Oc3ccc(F)cc3C(=O)N(C(C)C)C(C)C)C4)CC2)NC1=O [Example 38-2] | 13.1 nM

Target: Menin/MLL-4-43 peptide interaction (Homo sapiens (Human), UniProt O00255)
Experiment: Menin-MLL interaction inhibitory activity assay (fluorescence polarization competition)
Assay type: binding
Settings: FITC-MLL4-43-peptide, Menin recombinant protein
How it was run: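 Menin (8 nM solution) was preincubated 15 min with compound, then FITC-MLL4-43 peptide (10 nM solution) was added and shaken for 60 min at 25 °C. The buffer was 50 mM Tris pH 7.5, 50 mM NaCl, 1 mM DTT. IC50 was derived from fluorescence polarization read at 485/520 nm.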

Menin/MLL-4-43 peptide interaction, sequence (O00255 whole entry, species assumed): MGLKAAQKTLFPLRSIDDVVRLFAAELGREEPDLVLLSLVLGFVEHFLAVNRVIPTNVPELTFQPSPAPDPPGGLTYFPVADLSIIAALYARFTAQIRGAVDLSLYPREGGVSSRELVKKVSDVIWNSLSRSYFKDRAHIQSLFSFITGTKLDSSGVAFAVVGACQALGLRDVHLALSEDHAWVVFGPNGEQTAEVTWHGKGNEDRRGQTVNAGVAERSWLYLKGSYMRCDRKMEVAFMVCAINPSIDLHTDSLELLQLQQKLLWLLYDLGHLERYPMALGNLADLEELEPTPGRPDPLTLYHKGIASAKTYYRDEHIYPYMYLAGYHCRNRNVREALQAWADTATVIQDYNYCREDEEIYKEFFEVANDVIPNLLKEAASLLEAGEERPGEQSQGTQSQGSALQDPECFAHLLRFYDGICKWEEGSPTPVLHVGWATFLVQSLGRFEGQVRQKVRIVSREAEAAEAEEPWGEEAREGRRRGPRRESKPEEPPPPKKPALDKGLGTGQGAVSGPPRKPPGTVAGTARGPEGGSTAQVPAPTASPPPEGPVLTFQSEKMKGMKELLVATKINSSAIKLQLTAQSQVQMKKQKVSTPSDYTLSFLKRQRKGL

SMILES | IC50
CC(C)N(C(=O)c1cc(F)ccc1Oc1nncnc1N1CC2(CCN(CC3CC4CCC3CC43CCC(=O)N3)CC2)C1)C(C)C (single isomer, unassigned) [Example 15-1a] | 34.7 nM
CCN(C(=O)c1cc(F)ccc1Oc1cncnc1N1CC2(CCN(C[C@H]3CC[C@]4(CC3)CC(COC)(COC)C(=O)N4)CC2)C1)C(C)C [Example 17] | 5 nM
COCC1(COC)C[C@]2(CC[C@@H](CN3CCC4(CC3)CN(c3ncnnc3Oc3ccc(F)cc3C(=O)N(C(C)C)C(C)C)C4)CC2)NC1=O [Example 20] | 6 nM
COC[C@H]1C[C@]2(CC[C@@H](CN3CCC4(CC3)CN(c3ncnnc3Oc3ccc(F)cc3C(=O)N(C(C)C)C(C)C)C4)CC2)NC1=O [Example 38-1] | 16.3 nM
COC[C@@H]1C[C@]2(CC[C@@H](CN3CCC4(CC3)CN(c3ncnnc3Oc3ccc(F)cc3C(=O)N(C(C)C)C(C)C)C4)CC2)NC1=O [Example 38-2] | 2.8 nM

System: not listed separately
Experiment: Stability in human liver microsomes
Assay type: in vitro ADME
Settings: human, liver microsomes, pH 7.4, Human; 0.5 mg/mL microsomal protein, 1.00 μM compound, NADPH; read-out: Half life T1/2, human liver microsomes
How it was run: (§2)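 Compound at 1.00 μM incubated at 37° C with 0.5 mg/mL liver microsomal protein and 2.00 mM NADPH in 100 mM phosphate buffer pH 7.4, sampled 0–60 min with acetonitrile quench. Parent remaining by LC-MS/MS; T½ from ln-remaining slope, CLint scaled by microsomal concentration and conversion factor.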

SMILES | half-life at 1 μM
CC(C)N(C(=O)c1cc(F)ccc1Oc1nncnc1N1CC2(CCN(CC3CC4CCC3CC43CCC(=O)N3)CC2)C1)C(C)C (single isomer, unassigned) [Example 15-1a] | 36.9 min
CCN(C(=O)c1cc(F)ccc1Oc1cncnc1N1CC2(CCN(C[C@H]3CC[C@]4(CC3)CC(COC)(COC)C(=O)N4)CC2)C1)C(C)C [Example 17] | 31.3 min
COCC1(COC)C[C@]2(CC[C@@H](CN3CCC4(CC3)CN(c3ncnnc3Oc3ccc(F)cc3C(=O)N(C(C)C)C(C)C)C4)CC2)NC1=O [Example 20] | 74.9 min
COC[C@H]1C[C@]2(CC[C@@H](CN3CCC4(CC3)CN(c3ncnnc3Oc3ccc(F)cc3C(=O)N(C(C)C)C(C)C)C4)CC2)NC1=O [Example 38-1] | 88 min
COC[C@@H]1C[C@]2(CC[C@@H](CN3CCC4(CC3)CN(c3ncnnc3Oc3ccc(F)cc3C(=O)N(C(C)C)C(C)C)C4)CC2)NC1=O [Example 38-2] | 62.7 min

System: not listed separately
Experiment: Stability in dog liver microsomes
Assay type: in vitro ADME
Settings: dog, liver microsomes, pH 7.4, Dog; 0.5 mg/mL microsomal protein, 1.00 μM compound, NADPH; read-out: Half life T1/2, dog liver microsomes
How it was run: as §2

SMILES | half-life at 1 μM
CC(C)N(C(=O)c1cc(F)ccc1Oc1nncnc1N1CC2(CCN(CC3CC4CCC3CC43CCC(=O)N3)CC2)C1)C(C)C (single isomer, unassigned) [Example 15-1a] | > 120 min
CCN(C(=O)c1cc(F)ccc1Oc1cncnc1N1CC2(CCN(C[C@H]3CC[C@]4(CC3)CC(COC)(COC)C(=O)N4)CC2)C1)C(C)C [Example 17] | > 120 min
COCC1(COC)C[C@]2(CC[C@@H](CN3CCC4(CC3)CN(c3ncnnc3Oc3ccc(F)cc3C(=O)N(C(C)C)C(C)C)C4)CC2)NC1=O [Example 20] | > 120 min
COC[C@H]1C[C@]2(CC[C@@H](CN3CCC4(CC3)CN(c3ncnnc3Oc3ccc(F)cc3C(=O)N(C(C)C)C(C)C)C4)CC2)NC1=O [Example 38-1] | > 120 min
COC[C@@H]1C[C@]2(CC[C@@H](CN3CCC4(CC3)CN(c3ncnnc3Oc3ccc(F)cc3C(=O)N(C(C)C)C(C)C)C4)CC2)NC1=O [Example 38-2] | 98.2 min

System: MOLM-13
Experiment: Cell proliferation inhibition (CellTiter-Glo), MOLM-13
Assay type: cell-based
Settings: Homo sapiens, MOLM-13, 168 h, MOLM-13 cells
How it was run: as §1

SMILES | GI50
CC(C)N(C(=O)c1cc(F)ccc1Oc1nncnc1N1CC2(CCN(CC3CC4CCC3CC43CCC(=O)N3)CC2)C1)C(C)C (single isomer, unassigned) [Example 15-1a] | 154 nM
CCN(C(=O)c1cc(F)ccc1Oc1cncnc1N1CC2(CCN(C[C@H]3CC[C@]4(CC3)CC(COC)(COC)C(=O)N4)CC2)C1)C(C)C [Example 17] | 7.9 nM
COCC1(COC)C[C@]2(CC[C@@H](CN3CCC4(CC3)CN(c3ncnnc3Oc3ccc(F)cc3C(=O)N(C(C)C)C(C)C)C4)CC2)NC1=O [Example 20] | 36.1 nM
COC[C@H]1C[C@]2(CC[C@@H](CN3CCC4(CC3)CN(c3ncnnc3Oc3ccc(F)cc3C(=O)N(C(C)C)C(C)C)C4)CC2)NC1=O [Example 38-1] | 194 nM
COC[C@@H]1C[C@]2(CC[C@@H](CN3CCC4(CC3)CN(c3ncnnc3Oc3ccc(F)cc3C(=O)N(C(C)C)C(C)C)C4)CC2)NC1=O [Example 38-2] | 23.3 nM

System: OCI-AML3
Experiment: Cell proliferation inhibition (CellTiter-Glo), OCI-AML3 (NPM1 mutation)
Assay type: cell-based
Settings: Homo sapiens, OCI-AML-3, 168 h, OCI-AML3 cells
How it was run: as §1

SMILES | GI50
CC(C)N(C(=O)c1cc(F)ccc1Oc1nncnc1N1CC2(CCN(CC3CC4CCC3CC43CCC(=O)N3)CC2)C1)C(C)C (single isomer, unassigned) [Example 15-1a] | 82.5 nM
CCN(C(=O)c1cc(F)ccc1Oc1cncnc1N1CC2(CCN(C[C@H]3CC[C@]4(CC3)CC(COC)(COC)C(=O)N4)CC2)C1)C(C)C [Example 17] | 14.2 nM
COCC1(COC)C[C@]2(CC[C@@H](CN3CCC4(CC3)CN(c3ncnnc3Oc3ccc(F)cc3C(=O)N(C(C)C)C(C)C)C4)CC2)NC1=O [Example 20] | 35.2 nM
COC[C@H]1C[C@]2(CC[C@@H](CN3CCC4(CC3)CN(c3ncnnc3Oc3ccc(F)cc3C(=O)N(C(C)C)C(C)C)C4)CC2)NC1=O [Example 38-1] | 115 nM
COC[C@@H]1C[C@]2(CC[C@@H](CN3CCC4(CC3)CN(c3ncnnc3Oc3ccc(F)cc3C(=O)N(C(C)C)C(C)C)C4)CC2)NC1=O [Example 38-2] | 21.8 nM
